These results are taken from US12018059B2, “Human amylin analog polypeptides and methods of use” (Intarcia Therapeutics, Inc., priority 2018, dated 2024).

pEC50: −log10 of the molar value. Where two headings read alike, the source gives them in different places. Starred links: 1 amine or outer side, 2 acyl side, 3 side chain; linkers in the order of their positions; H or OH if unused. Positions of bridges follow the written chain, without caps; N, C: chain ends. Non-standard residues stand in square brackets, D forms with d. Residues, ends and D or L forms follow the SMILES beside them. Groups on a side chain read outwards from the residue. *: point of attachment. C20 diacid = O=C(O)CCCCCCCCCCCCCCCCCCC(=O)*; C18 diacid = O=C(O)CCCCCCCCCCCCCCCCC(=O)*; γGlu = O=C(O)[C@H](CCC(=O)[*:2])N[*:1]; AEEA = NCCOCCOCC(=O)O

Data set [1] concerns the target human amylin 3 receptor (hAMY3R) (Homo sapiens, UniProt O60896+P30988). In words: cAMP accumulation functional assay in HEK293-CNG cells expressing hAMY3R. Type of data set: cell-based. The settings on record: for pEC50: pEC50 hAMY3R 0.1% HSA, 0.1% HSA. Here is the method:
(§1) In the presence of the non-specific cAMP/cGMP phosphodiesterase inhibitor 3-isobutyl-1-methylxanthine (IBMX), accumulating cAMP can be measured in vitro using common detection methods. Thus, it is possible to estimate an in vitro potency (pEC50) for peptides activating each of these receptors using fit dose-response curves for cAMP accumulation.
(§2) Cells were carried in growth media for no more than 10 passages prior to testing.
(§3) Peptides were serially diluted in the same buffer as above for each given assay condition. Two assay control solutions consisting of 50 mcM forskolin (cAMP system maximum) or assay buffer only (cAMP system minimum) were also prepared in the appropriate stimulation buffers. Five microliters of each peptide-concentration, or assay control was added to triplicate wells and incubated for thirty minutes at room temperature. During this incubation step a 4× europium labelled cAMP tracer solution and a 4× Ulight®-anti-cAMP solution (consisting of an anti-cAMP monoclonal antibody labelled with Ulight™ dye) was prepared according to the manufacturer's protocol (PerkinElmer LANCE Ultra cAMP kit). Following this incubation, 5 mcL europium labelled cAMP and 5 mcL Ulight anti-cAMP antibody was added to wells. The plate was covered with an adhesive cover to prevent evaporation and incubated for 60 minutes at room temperature in the dark. Plates were read on an Envision fluorescent plate reader (PerkinElmer).
(§4) Test values were first normalized to the forskolin induced cAMP system maximum and system minimum averaged values in Excel using the formula: (test value−system minavg)/(system maxavg−system minavg)*100. Normalized test values represent a baseline corrected percentage of the system maximum cAMP response induced by forskolin. Normalized data was analyzed from triplicate tests and used to estimate the EC50 for each peptide on each receptor. Data was fit in GraphPad Prism software (v7.04) using a 4-parameter logistic curve model: Y=Bottom+(Top−Bottom)/(1+10^((Log EC50−X))). The Hill slope was constrained to 1.0. EC50 values were converted to pEC50 values using the formula: pEC50=−Log (EC50).

The target of data set [2] is T1, human calcitonin receptor (hCTR) (Homo sapiens, UniProt P30988).
T1 sequence (P30988 25-474): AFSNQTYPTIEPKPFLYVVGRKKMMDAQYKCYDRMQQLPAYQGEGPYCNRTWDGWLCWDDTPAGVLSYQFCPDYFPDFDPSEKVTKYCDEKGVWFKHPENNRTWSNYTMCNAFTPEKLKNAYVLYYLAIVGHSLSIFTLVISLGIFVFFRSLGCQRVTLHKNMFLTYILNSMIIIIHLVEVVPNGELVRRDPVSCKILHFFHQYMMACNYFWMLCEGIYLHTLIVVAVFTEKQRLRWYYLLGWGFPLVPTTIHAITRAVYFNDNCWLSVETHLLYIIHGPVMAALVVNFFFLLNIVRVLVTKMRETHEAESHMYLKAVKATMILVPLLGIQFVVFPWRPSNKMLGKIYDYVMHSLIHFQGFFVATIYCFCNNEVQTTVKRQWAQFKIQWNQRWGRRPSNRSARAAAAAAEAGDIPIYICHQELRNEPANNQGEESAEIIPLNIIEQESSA
In words: cAMP accumulation functional assay in HEK293-CNG cells expressing hCTR. It is filed as cell-based. The following applies: for pEC50: hCTR 0.1% HSA, 0.1% HSA. Here is the method: as §1, §2, §3, §4

Data set [3] is described as follows: in vivo. More on the design: species or system Sprague-Dawley rats. The following applies: rat, iv, 0.033 mg/kg. An outline of the steps: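 Peptide plasma levels measured by UPLC-MS/MS (C18, product-ion monitoring) after protein precipitation or WCX SPE, calibrated in K2EDTA/protease-inhibitor rat plasma. Dosing in non-fasted male Sprague-Dawley rats (n=3): 0.033 mg/kg over 1 h by IV or SC infusion, or 0.3 mg/kg SC bolus; sampling up to 48 h.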

A short description of data set [4]: Pharmacokinetics, 3-hour intravenous infusion of linear (non-acylated) polypeptides. Also on record: species or system Sprague-Dawley rats. The following applies: rat, in vivo, 0.1 mg/kg; linear polypeptides; 3-hour intravenous infusion, 0.100 mg/kg, male Sprague-Dawley rats; read-out: CL.
The mark [5] stands for this setting: 0% HSA, read-out: pEC50 hAMY3R 0% HSA (converted).
Where [6] appears, read: 4% HSA, read-out: pEC50 hAMY3R 4% HSA (converted).
Setting [7] is: hCTR 0% HSA, 0% HSA, read-out: pEC50 hCTR 0% HSA (converted).
Where [8] appears, read: hCTR 4% HSA, 4% HSA, read-out: pEC50 hCTR 4% HSA (converted).

human amylin 3 receptor (hAMY3R), sequence (O60896 24-148, one chain of several): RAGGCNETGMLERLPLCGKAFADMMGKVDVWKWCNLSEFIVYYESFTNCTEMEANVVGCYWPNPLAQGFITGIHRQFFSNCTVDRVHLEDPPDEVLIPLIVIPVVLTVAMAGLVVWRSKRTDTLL

In the case of `CC[C@H](C)[C@H](NC(=O)[C@@H]1CCCN1C(=O)CNC(=O)[C@H](Cc1ccccc1)NC(=O)[C@H](CC(N)=O)NC(=O)[C@H](CC(N)=O)NC(=O)[C@H](CO)NC(=O)[C@H](CO)NC(=O)[C@H](CCCCN)NC(=O)[C@H](Cc1c[nH]cn1)NC(=O)[C@H](CC(C)C)NC(=O)[C@@H](CCCCNC(=O)CC[C@H](NC(=O)CC[C@H](NC(=O)COCCOCCNC(=O)CC[C@H](NC(=O)CCCCCCCCCCCCCCCCCCC(=O)O)C(=O)O)C(=O)O)C(=O)O)NC(=O)[C@H](CC(N)=O)NC(=O)[C@H](C)NC(=O)[C@H](CC(C)C)NC(=O)[C@H](CCCNC(=N)N)NC(=O)[C@H](CCC(N)=O)NC(=O)[C@@H](NC(=O)[C@H](C)NC(=O)[C@@H]1CSSC[C@H](NC(=O)[C@@H](N)CO)C(=O)N[C@@H](CC(N)=O)C(=O)N[C@@H]([C@@H](C)O)C(=O)N[C@@H](CO)C(=O)N[C@@H]([C@@H](C)O)C(=O)N1)[C@@H](C)O)C(=O)N[C@@H](CC(C)C)C(=O)N1CCC[C@H]1C(=O)N1CCC[C@H]1C(=O)N[C@H](C(=O)N[C@@H](CCCCN)C(=O)N[C@H](C(=O)NCC(=O)N[C@@H](CO)C(=O)N[C@@H](CCC(=O)O)C(=O)N[C@H](C(=O)N[C@@H](Cc1ccc(O)cc1)C(N)=O)[C@@H](C)O)C(C)C)[C@@H](C)O` [Compound A100] (H-SCNTSTCATQRLAN[dK]([γGlu-γGlu-AEEA-γGlu-C20 diacid])LHKSSNNFGPILPPTKVGSETY-NH2; disulfide 2-7; N-terminus assumed), the EC50 in data set [1] (setting [5]) was 0.00794 nM; in data set [1] (setting [6]), 25.1 nM; in data set [2] (setting [7]), 0.0316 nM; in data set [2] (setting [8]), 79.4 nM. The pEC50 in data set [1] is 8.80; in data set [2], 8.10. In data set [3], this compound showed a Vd of 0.14 L/kg. Further, the clearance in data set [3] was 0.0791 mL/min/kg. Besides, the half-life in data set [3] is 21.4 h.
Take `CC[C@H](C)[C@H](NC(=O)[C@@H]1CCCN1C(=O)CNC(=O)[C@H](Cc1ccccc1)NC(=O)[C@H](CC(N)=O)NC(=O)[C@H](CC(N)=O)NC(=O)[C@H](CO)NC(=O)[C@H](CO)NC(=O)[C@H](CCCCN)NC(=O)[C@H](Cc1c[nH]cn1)NC(=O)[C@H](CC(C)C)NC(=O)[C@H](CCC(=O)O)NC(=O)[C@H](CC(N)=O)NC(=O)[C@H](C)NC(=O)[C@H](CC(C)C)NC(=O)[C@H](CCCNC(=N)N)NC(=O)[C@H](CCC(N)=O)NC(=O)[C@@H](NC(=O)[C@H](C)NC(=O)[C@@H]1CSSC[C@H](NC(=O)[C@@H](N)CCCCNC(=O)CC[C@H](NC(=O)CCCCCCCCCCCCCCCCCCC(=O)O)C(=O)O)C(=O)N[C@@H](CC(N)=O)C(=O)N[C@@H]([C@@H](C)O)C(=O)N[C@@H](CO)C(=O)N[C@@H]([C@@H](C)O)C(=O)N1)[C@@H](C)O)C(=O)N[C@@H](CC(C)C)C(=O)N1CCC[C@H]1C(=O)N1CCC[C@H]1C(=O)N[C@H](C(=O)N[C@@H](CCCCN)C(=O)N[C@H](C(=O)NCC(=O)N[C@@H](CO)C(=O)N[C@@H](CCC(=O)O)C(=O)N[C@H](C(=O)N[C@@H](Cc1ccc(O)cc1)C(N)=O)[C@@H](C)O)C(C)C)[C@@H](C)O` [Compound A119] (H-K([γGlu-C20 diacid])CNTSTCATQRLANELHKSSNNFGPILPPTKVGSETY-NH2; disulfide 2-7; N-terminus assumed): the EC50 is 0.00126 nM in data set [1] (setting [5]), 3.16 nM in data set [1] (setting [6]), 0.00631 nM in data set [2] (setting [7]) and 12.6 nM in data set [2] (setting [8]). Moreover, the figures for the negative logarithm of the EC50 (pEC50) in data set [1] and in data set [2] were 10.20 and 9.50, respectively.
Turning to `CC[C@H](C)[C@H](NC(=O)[C@@H]1CCCN1C(=O)CNC(=O)[C@H](Cc1ccccc1)NC(=O)[C@H](CC(N)=O)NC(=O)[C@H](CC(N)=O)NC(=O)[C@H](CO)NC(=O)[C@H](CO)NC(=O)[C@H](CCCCN)NC(=O)[C@H](Cc1c[nH]cn1)NC(=O)[C@H](CC(C)C)NC(=O)[C@H](CCC(=O)O)NC(=O)[C@H](CC(N)=O)NC(=O)[C@H](C)NC(=O)[C@H](CC(C)C)NC(=O)[C@H](CCCNC(=N)N)NC(=O)[C@H](CCC(N)=O)NC(=O)[C@@H](NC(=O)[C@H](C)NC(=O)[C@@H]1CSSC[C@H](NC(=O)[C@@H](N)CCCCNC(=O)COCCOCCNC(=O)COCCOCCNC(=O)CC[C@H](NC(=O)CCCCCCCCCCCCCCCCC(=O)O)C(=O)O)C(=O)N[C@@H](CC(N)=O)C(=O)N[C@@H]([C@@H](C)O)C(=O)N[C@@H](CO)C(=O)N[C@@H]([C@@H](C)O)C(=O)N1)[C@@H](C)O)C(=O)N[C@@H](CC(C)C)C(=O)N1CCC[C@H]1C(=O)N1CCC[C@H]1C(=O)N[C@H](C(=O)N[C@@H](CCCCN)C(=O)N[C@H](C(=O)NCC(=O)N[C@@H](CO)C(=O)N[C@@H](CCC(=O)O)C(=O)N[C@H](C(=O)N[C@@H](Cc1ccc(O)cc1)C(N)=O)[C@@H](C)O)C(C)C)[C@@H](C)O` [Compound A113] (H-K([AEEA-AEEA-γGlu-C18 diacid])CNTSTCATQRLANELHKSSNNFGPILPPTKVGSETY-NH2; disulfide 2-7), the EC50 in data set [1] (setting [6]) was 1 nM; in data set [2] (setting [7]) it was 0.00501 nM; in data set [2] (setting [8]) it was 7.94 nM. In addition, the negative logarithm of the EC50 (pEC50) is 10.60 in data set [1] and 9.70 in data set [2].
As for `CC[C@H](C)[C@H](NC(=O)[C@@H]1CCCN1C(=O)CNC(=O)[C@H](Cc1ccccc1)NC(=O)[C@H](CC(N)=O)NC(=O)[C@H](CC(N)=O)NC(=O)[C@H](CO)NC(=O)[C@H](CO)NC(=O)[C@H](CCCNC(=N)N)NC(=O)[C@H](Cc1c[nH]cn1)NC(=O)[C@H](CC(C)C)NC(=O)[C@H](CCC(=O)O)NC(=O)[C@H](CC(N)=O)NC(=O)[C@H](C)NC(=O)[C@H](CC(C)C)NC(=O)[C@H](CCCNC(=N)N)NC(=O)[C@H](CCC(N)=O)NC(=O)[C@@H](NC(=O)[C@H](C)NC(=O)[C@@H]1CSSC[C@H](NC(=O)[C@@H](N)CO)C(=O)N[C@@H](CC(N)=O)C(=O)N[C@@H]([C@@H](C)O)C(=O)N[C@@H](CO)C(=O)N[C@@H]([C@@H](C)O)C(=O)N1)[C@@H](C)O)C(=O)N[C@@H](CC(C)C)C(=O)N1CCC[C@H]1C(=O)N1CCC[C@H]1C(=O)N[C@H](C(=O)N[C@@H](CC(N)=O)C(=O)N[C@H](C(=O)NCC(=O)N[C@@H](CO)C(=O)N[C@@H](CC(N)=O)C(=O)N[C@H](C(=O)N[C@@H](Cc1ccc(O)cc1)C(N)=O)[C@@H](C)O)C(C)C)[C@@H](C)O` [Compound A45] (H-SCNTSTCATQRLANELHRSSNNFGPILPPTNVGSNTY-NH2; disulfide 2-7), in data set [4], the clearance was found to be 21.1 mL/min/kg.
On the same count and under the same terms, under `CC[C@H](C)[C@H](NC(=O)[C@@H]1CCCN1C(=O)CNC(=O)[C@H](Cc1ccccc1)NC(=O)[C@H](CC(N)=O)NC(=O)[C@H](CC(N)=O)NC(=O)[C@H](CO)NC(=O)[C@H](CO)NC(=O)[C@H](Cc1c[nH]cn1)NC(=O)[C@@H](NC(=O)[C@H](CC(C)C)NC(=O)[C@H](CCC(=O)O)NC(=O)[C@H](CC(N)=O)NC(=O)[C@H](C)NC(=O)[C@H](CC(C)C)NC(=O)[C@H](CCCNC(=N)N)NC(=O)[C@H](CO)NC(=O)[C@@H](NC(=O)[C@H](C)NC(=O)[C@@H]1CSSC[C@H](NC(=O)[C@@H](N)CO)C(=O)N[C@@H](CC(N)=O)C(=O)N[C@@H]([C@@H](C)O)C(=O)N[C@@H](CO)C(=O)N[C@@H]([C@@H](C)O)C(=O)N1)[C@@H](C)O)C(C)C)C(=O)N[C@@H](CC(C)C)C(=O)N1CCC[C@H]1C(=O)N1CCC[C@H]1C(=O)N[C@H](C(=O)N[C@@H](CC(N)=O)C(=O)N[C@H](C(=O)NCC(=O)N[C@@H](CO)C(=O)N[C@@H](CC(N)=O)C(=O)N[C@H](C(=O)N[C@@H](Cc1ccc(O)cc1)C(N)=O)[C@@H](C)O)C(C)C)[C@@H](C)O` [Compound A32] (H-SCNTSTCATSRLANELVHSSNNFGPILPPTNVGSNTY-NH2; disulfide 2-7) stands 19.5 mL/min/kg.
